# According to patent US20210387992A1, “POLYMORPH FORM OF A MONOPHOSPHATE HYDRATE SALT OF A KNOWN TETRAHYDROISOQUINOLINE DERIVATIVE” (Pfizer Inc., priority 2019, published 2021):
# Where a name gives a salt, the structure may show the parent alone.
# What was measured:
# [1] = Solid-state physical stability: PXRD after the DVS run / exposure to high RH; format: physicochemical; settings: for physical stability / structural change on water sorption (in words): DVS 0-90% RH, PXRD after the run
# Experimental: (§1) The hygroscopicity of the products of Reference Example 1 and Example 3 were tested using Dynamic Vapor Sorption (DVS). Surface Measurement Systems Ltd. Dynamic Vapour Sorption Advantage Equipment was used employing a 10% RH change at 25° C. starting at 40% RH and looping from 0% RH to 90% RH and back to 0% RH twice. […] Two full cycles from 0% RH to 90% RH were carried out. The percent mass increase with respect to the sample mass of the first exposure to 0% RH (dry weight) was calculated and is presented in Table 7. […] Also, a decrease in mass is noted at 80% RH consistent with a solid-state change, occurs at these conditions.
# [2] = Hygroscopicity by Dynamic Vapor Sorption (DVS); format: physicochemical; settings: 25° C.
# Experimental: as §1
smiles,measurement,setting,value
"Cc1ncnc2c1ccn2[C@@H]1C[C@H](Oc2cc(C(F)F)c(F)c3c2CNCC3)[C@@H](O)[C@H]1O [Phosphate, (1S,2S,3S,5R)-3-((6-(difluoromethyl)-5-fluoro-1,2,3,4-tetrahydroisoquinolin-8-yl)oxy)-5-(4-methyl-7H-pyrrolo[2,3-d]pyrimidin-7-yl)cyclopentane-1,2-diol monophosphate hydrate]",physical stability / structural change on water sorption (in words),"[1]; listed as Example 3 phosphate salt, monophosphate hydrate",no structural changes caused by the water sorption
same,% Mass-Ref Dry mass,"[2]; 10% RH, monophosphate hydrate",3.4%
same,% Mass-Ref Dry mass,"[2]; 20% RH, monophosphate hydrate",3.7%
same,% Mass-Ref Dry mass,"[2]; 30% RH, monophosphate hydrate",3.9%
same,% Mass-Ref Dry mass,"[2]; 40% RH, monophosphate hydrate",4.1%
same,% Mass-Ref Dry mass,"[2]; 50% RH, monophosphate hydrate",4.3%
same,% Mass-Ref Dry mass,[2]; 60% RH,4.5%
same,% Mass-Ref Dry mass,"[2]; 70% RH, listed as Example 3 phosphate salt, monophosphate hydrate",4.57%
same,% Mass-Ref Dry mass,"[2]; 70% RH, monophosphate hydrate",4.6%
same,% Mass-Ref Dry mass,"[2]; 80% RH, monophosphate hydrate",4.7%
same,% Mass-Ref Dry mass,"[2]; 90% RH, monophosphate hydrate",4.8%
"Cc1ncnc2c1ccn2[C@@H]1C[C@H](Oc2cc(C(F)F)c(F)c3c2CNCC3)[C@@H](O)[C@H]1O [di HCl, (1S,2S,3S,5R)-3-((6-(difluoromethyl)-5-fluoro-1,2,3,4-tetrahydroisoquinolin-8-yl)oxy)-5-(4-methyl-7H-pyrrolo[2,3-d]pyrimidin-7-yl)cyclopentane-1,2-diol (di) hydrochloride]",physical stability / structural change on water sorption (in words),"[1]; listed as di-HCL salt, hydrochloride",not physically stable
same,relative humidity at which the amorphous salt crystallizes,"[1]; PXRD after DVS run, 25° C.",≥ 80 % RH
same,% Mass-Ref Dry mass,"[2]; 0% RH, relative to mass at first exposure to 0% RH",0.0%
same,hygroscopicity (in words),[2]; 0-90% RH,very hygroscopic
same,% Mass-Ref Dry mass,"[2]; 10% RH, hydrochloride",2.9%
same,% Mass-Ref Dry mass,"[2]; 20% RH, hydrochloride",4.0%
same,% Mass-Ref Dry mass,"[2]; 30% RH, hydrochloride",4.9%
same,% Mass-Ref Dry mass,"[2]; 40% RH, hydrochloride",6.0%
same,% Mass-Ref Dry mass,"[2]; 50% RH, hydrochloride",7.6%
same,% Mass-Ref Dry mass,"[2]; 60% RH, hydrochloride",10.4%
same,% Mass-Ref Dry mass,"[2]; 70% RH, hydrochloride",14.7%
same,% Mass-Ref Dry mass,"[2]; 70% RH, listed as diHCl salt, hydrochloride",14.7%
same,% Mass-Ref Dry mass,"[2]; 80% RH, hydrochloride",12.0%
same,% Mass-Ref Dry mass,"[2]; 90% RH, hydrochloride",12.0%
